# Measurements: US9079919B2 (HOFFMANN-LA ROCHE INC., priority 2011, dated 2015)
# pIC50: −log10 of the molar value.
# Legend:
# BACE1 = target: T1, BACE1 (Homo sapiens, UniProt P56817); experiment: Cellular Aβ-lowering assay a) (Aβ40 ELISA); type: cell-based; settings: cellular assay a): HEK293 cells expressing human APP695, Aβ40 in supernatant by ELISA after 18-20 hrs; read-out: BACE1 cell act. Aβ40 IC50
# T1 construct: Human HEK293 cells which are stably transfected with a vector expressing a cDNA of the human APP wt gene (APP695); endogenous in cells; host or cells: HEK293 cells stably transfected with human APP695 (wt)
# T1 sequence (P56817 46-501): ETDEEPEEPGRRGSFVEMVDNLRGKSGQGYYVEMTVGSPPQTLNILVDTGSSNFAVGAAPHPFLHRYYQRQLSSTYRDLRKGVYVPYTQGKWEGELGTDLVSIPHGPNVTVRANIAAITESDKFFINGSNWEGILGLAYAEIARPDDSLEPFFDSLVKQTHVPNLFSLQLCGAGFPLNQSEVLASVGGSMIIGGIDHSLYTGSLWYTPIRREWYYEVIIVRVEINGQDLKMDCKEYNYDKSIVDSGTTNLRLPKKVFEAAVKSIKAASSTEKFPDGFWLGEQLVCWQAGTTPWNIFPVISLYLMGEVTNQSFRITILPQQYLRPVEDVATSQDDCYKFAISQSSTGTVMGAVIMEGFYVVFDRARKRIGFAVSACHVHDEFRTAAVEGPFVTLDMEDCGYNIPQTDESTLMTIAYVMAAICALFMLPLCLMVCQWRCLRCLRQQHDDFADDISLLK
# Protocol: a) Human HEK293 cells which are stably transfected with a vector expressing a cDNA of the human APP wt gene (APP695) were used to assess the potency of the compounds in a cellular assay. The cells were seeded in 96-well microtiter plates in cell culture medium (Iscove, plus 10% (v/v) fetal bovine serum, glutamine, penicillin/streptomycin) to about 80% confluence and the compounds were added at a 10× concentration in 1/10 volume of medium without FCS containing 8% DMSO (final concentration of DMSO was kept at 0.8% v/v). After 18-20 hrs incubation at 37° C. and 5% CO2 in a humidified incubator the culture supernatant was harvested for the determination of Aβ40 concentrations. 96 well ELISA plates (e.g., Nunc MaxiSorb) were coated with monoclonal antibody which specifically recognize the C-terminal end of Aβ40 (Brockhaus et al., NeuroReport 9, 1481-1486; 1998). After blocking of non-specific binding sites with e.g. 1% BSA and washing, the culture supernatants were added in suitable dilutions together with a horseradish peroxidase-coupled Aβ detection antibody (e.g., antibody 4G8, Senetek, Maryland Heights, Mo.) and incubated for 5 to 7 hrs. Subsequently the wells of the microtiter plate were washed extensively with Tris-buffered saline containing 0.05% Tween 20 and the assay was developed with tetramethylbenzidine/H2O2 in citric acid buffer. After stopping the reaction with one volume of 1N H2SO4 the reaction was measured in an ELISA reader at 450 nm wavelength. The concentrations of Aβ in the culture supernatants were calculated from a standard curve obtained with known amounts of pure Aβ peptide.
# BACE2 = target: T2, BACE2 (Rattus norvegicus, UniProt Q6IE75); experiment: Assay for BACE inhibition by measuring cellular TMEM27 cleavage; type: cell-based; settings: INS-TMEM27 cells (INS1e-derived), shed human TMEM27 by ELISA; read-out: BACE2 cell act. IC50
# T2 construct: endogenous cellular BACE2 in the Ins1e rat cell line; endogenous in cells; host or cells: INS-TMEM27 (INS1e-derived rat cell line with doxycycline-inducible full-length human TMEM27)
# T2 sequence (Q6IE75 63-514): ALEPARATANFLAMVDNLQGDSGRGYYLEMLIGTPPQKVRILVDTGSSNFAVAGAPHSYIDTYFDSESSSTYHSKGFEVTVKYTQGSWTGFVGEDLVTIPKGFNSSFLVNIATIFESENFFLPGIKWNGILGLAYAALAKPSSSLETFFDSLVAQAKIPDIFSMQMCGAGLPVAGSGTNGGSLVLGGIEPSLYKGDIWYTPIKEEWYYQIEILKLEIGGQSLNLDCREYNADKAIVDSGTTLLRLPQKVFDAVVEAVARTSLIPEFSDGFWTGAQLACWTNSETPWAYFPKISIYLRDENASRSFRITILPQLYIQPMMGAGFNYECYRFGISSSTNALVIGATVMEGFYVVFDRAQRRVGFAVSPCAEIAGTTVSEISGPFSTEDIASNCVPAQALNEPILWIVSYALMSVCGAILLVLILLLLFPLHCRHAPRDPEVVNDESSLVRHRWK
# Text: The assay uses the principle of inhibition of human TMEM27 cleavage by endogenous cellular BACE2 in the Ins1e rat cell line and shedding from the cell surface into the culture medium, followed by detection in an ELISA assay. Inhibition of BACE2 prevents the cleavage and shedding in a dose-dependent manner.
# The stable cell line “INS-TMEM27” represents an INS1e-derived cell line with inducible expression (using the TetOn system) of full-length hTMEM27 in a doxycycline-dependent manner. The cells are cultured throughout the experiment in RPMI1640+ Glutamax (Invitrogen) Penicillin/Streptomycin, 10% Fetal bovine serum, […], […], 100 micrograms/ml G418 and 100 microgram/ml hygromycin and are grown inadherent culture at 37° C. in a standard CO2 cell culture incubator.
# INS-TMEM27 cells are seeded in 96-well plates. After 2 days in culture, BACE2 inhibitor is added in a range of concentrations as required by the assay and after a further two hours, doxycycline is added to a final concentration of 500 ng/ml. The cells are incubated for a further 46 hours and the supernatant harvested for detection of shed TMEM27.
# An ELISA assay (using a pair of mouse anti-human-TMEM27 antibodies, raised against the extracellular domain of TMEM27) is used for detection of TMEM27 in the culture medium. An EC50 for BACE2 inhibition is calculated using the ELISA readout for each inhibitor concentration with standard curve-fitting software such as XLFit for the Excel spreadsheet program.
pIC50 (BACE1),pIC50 (BACE2),Structure (SMILES)
7.00,6.27,"NC1=N[C@@]2(CCCc3ccc(-c4cncc(Cl)c4)cc32)C(F)(F)CO1 [Example 1, (R)-7-(5-Chloropyridin-3-yl)-5′,5′-difluoro-3,4,5′,6′-tetrahydro-2H-spiro[naphthalene-1,4′-[1,3]oxazin]-2′-amine]"
5.61,5.56,"NC1=N[C@@]2(CCc3ccc(-c4cc(Cl)cc(Cl)c4)cc32)C(F)(F)CO1 [Example 8, (R)-6-(3,5-Dichlorophenyl)-5′,5′-difluoro-2,3,5′,6′-tetrahydrospiro[indene-1,4′-[1,3]oxazin]-2′-amine]"
5.69,5.40,"NC1=N[C@@]2(CCOc3ccc(-c4cc(Cl)cc(Cl)c4)cc32)C(F)(F)CO1 [Example 20, (R)-6-(3,5-dichlorophenyl)-5′,5′-difluoro-5′,6′-dihydrospiro[chroman-4,4′-[1,3]oxazin]-2′-amine]"
6.44,6.01,"NC1=N[C@@]2(CCOc3ccc(NC(=O)c4ccc(Cl)cn4)cc32)C(F)(F)CO1 [Example 33, (R)—N-(2′-Amino-5′,5′-difluoro-5′,6′-dihydrospiro[chroman-4,4′-[1,3]oxazine]-6-yl)-5-chloropicolinamide]"
7.10,5.72,"N#Cc1ccc(C(=O)Nc2ccc3c(c2)[C@@]2(CCO3)N=C(N)OCC2(F)F)nc1 [Example 34, (R)—N-(2′-Amino-5′,5′-difluoro-5′,6′-dihydrospiro[chroman-4,4′-[1,3]oxazine]-6-yl)-5-cyanopicolinamide]"
5.67,–,"NC1=N[C@@]2(CCOc3ccc(NC(=O)c4ccc(Cl)cn4)cc32)C(F)(F)COC1 [Example 50, (R)—N-(3′-Amino-6′,6′-difluoro-6′,7′-dihydro-2′H-spiro[chroman-4,5′-[1,4]oxazepine]-6-yl)-5-chloropicolinamide]"
5.94,–,"NC1=N[C@@]2(CCOc3ccc(-c4cncc(Cl)c4)cc32)C(F)(F)COC1 [Example 54, (R)-6-(5-Chloropyridin-3-yl)-6′,6′-difluoro-6′,7′-dihydro-2′H-spiro[chroman-4,5′-[1,4]oxazepin]-3′-amine]"

# More lines, now with the values behind:
Structure (SMILES),pIC50 (BACE1),pIC50 (BACE2)
"N#Cc1cncc(-c2ccc3c(c2)[C@@]2(CCC3)N=C(N)OCC2(F)F)c1 [Example 2, (R)-5-(2′-Amino-5′,5′-difluoro-3,4,5′,6′-tetrahydro-2H-spiro[naphthalene-1,4′-[1,3]oxazine]-7-yl)nicotinonitrile]",7.10,6.28
"NC1=N[C@@]2(CCc3ccc(-c4cncc(Cl)c4)cc32)C(F)(F)CO1 [Example 9, (R)-6-(5-Chloropyridin-3-yl)-5′,5′-difluoro-2,3,5′,6′-tetrahydrospiro[indene-1,4′-[1,3]oxazin]-2′-amine]",6.10,5.45
"N#Cc1ccc(C(=O)Nc2ccc3c(c2)[C@@]2(CCC3)N=C(N)OCC2(F)F)nc1 [Example 13, (R)—N-(2′-Amino-5′,5′-difluoro-3,4,5′,6′-tetrahydro-2H-spiro[naphthalene-1,4′-[1,3]oxazine]-7-yl)-5-cyanopicolinamide]",8.30,6.94
"CC1(C)CC[C@@]2(N=C(N)OCC2(F)F)c2cc(NC(=O)c3ccc(C#N)cn3)ccc21 [Example 14, (R)—N-(2′-Amino-5′,5′-difluoro-4,4-dimethyl-3,4,5′,6′-tetrahydro-2H-spiro[naphthalene-1,4′-[1,3]oxazine]-7-yl)-5-cyanopicolinamide]",5.95,4.88
"NC1=N[C@@]2(CCOc3ccc(-c4cncc(Cl)c4)cc32)C(F)(F)CO1 [Example 19, (R)-6-(5-Chloropyridin-3-yl)-5′,5′-difluoro-5′,6′-dihydrospiro[chroman-4,4′-[1,3]oxazin]-2′-amine]",6.42,6.91
"COc1cncc(-c2ccc3c(c2)[C@@]2(CCO3)N=C(N)OCC2(F)F)c1 [Example 22, (R)-5′,5′-difluoro-6-(5-methoxypyridin-3-yl)-5′,6′-dihydrospiro[chroman-4,4′-[1,3]oxazin]-2′-amine]",5.56,6.03
"NC1=N[C@@]2(CCSc3ccc(-c4cncc(Cl)c4)cc32)C(F)(F)CO1 [Example 32, (R)-6′-(5-Chloropyridin-3-yl)-5,5-difluoro-5,6-dihydrospiro[[1,3]oxazine-4,4′-thiochroman]-2-amine]",6.17,5.71
NC1=N[C@@]2(CCOc3ccc(NC(=O)c4[nH]ncc4Cl)cc32)C(F)(F)CO1 [Example 35],5.90,–
"CC1(C)C[C@@]2(N=C(N)OCC2(F)F)c2cc(NC(=O)c3ccc(Cl)cn3)ccc2O1 [Example 40, (R)—N-(2′-Amino-5′,5′-difluoro-2,2-dimethyl-5′,6′-dihydrospiro[chroman-4,4′-[1,3]oxazine]-6-yl)-5-chloropicolinamide]",5.65,–
"CC1(C)C[C@@]2(N=C(N)OCC2(F)F)c2cc(NC(=O)c3ccc(C#N)cn3)ccc2O1 [Example 41, (R)—N-(2′-Amino-5′,5′-difluoro-2,2-dimethyl-5′,6′-dihydrospiro[chroman-4,4′-[1,3]oxazine]-6-yl)-5-cyanopicolinamide]",6.64,–
"NC1=N[C@@]2(CCSc3ccc(NC(=O)c4ccc(Cl)cn4)cc32)C(F)(F)CO1 [Example 42, (R)—N-(2-Amino-5,5-difluoro-5,6-dihydrospiro[[1,3]oxazine-4,4′-thiochroman]-6′-yl)-5-chloropicolinamide]",7.46,6.36
"NC1=N[C@@]2(CCS(=O)(=O)c3ccc(NC(=O)c4ccc(Cl)cn4)cc32)C(F)(F)CO1 [Example 45, N-[(4R)-2-amino-5,5-difluoro-1′,1′-dioxido-2′,3′,5,6-tetrahydrospiro[1,3-oxazine-4,4′-thiochromen]-6′-yl]-5-chloropyridine-2-carboxamide]",5.16,–
"N#Cc1ccc(C(=O)Nc2ccc3c(c2)[C@@]2(CCS3(=O)=O)N=C(N)OCC2(F)F)nc1 [Example 46, N-[(4R)-2-amino-5,5-difluoro-1′,1′-dioxido-2′,3′,5,6-tetrahydrospiro[1,3-oxazine-4,4′-thiochromen]-6′-yl]-5-cyanoopyridine-2-carboxamide]",5.47,–
"N#Cc1ccc(C(=O)Nc2ccc3c(c2)[C@@]2(CCC3)N=C(N)COCC2(F)F)nc1 [Example 47, (R)—N-(3′-Amino-6′,6′-difluoro-3,4,6′,7′-tetrahydro-2H,2′H-spiro[naphthalene-1,5′-[1,4]oxazepine]-7-yl)-5-cyanopicolinamide]",6.62,–
"NC1=N[C@@]2(CCCc3ccc(NC(=O)c4ccc(Cl)cn4)cc32)C(F)(F)COC1 [Example 48, (R)—N-(3′-Amino-6′,6′-difluoro-3,4,6′,7′-tetrahydro-2H,2′H-spiro[naphthalene-1,5′-[1,4]oxazepine]-7-yl)-5-chloropicolinamide]",6.35,–
"N#Cc1ccc(C(=O)Nc2ccc3c(c2)[C@@]2(CCO3)N=C(N)COCC2(F)F)nc1 [Example 49, (R)—N-(3′-Amino-6′,6′-difluoro-6′,7′-dihydro-2′H-spiro[chroman-4,5′-[1,4]oxazepine]-6-yl)-5-cyanopicolinamide]",6.08,–
